Test results published in publication PMC6980506, “Comparative pharmacokinetics and pharmacodynamics of the advanced Retinol-Binding Protein 4 antagonist in dog and cynomolgus monkey” (PLoS ONE, 2020).
Read-outs that look alike come from different tables or passages of the source.

Experiments:
[1] = Single dose pharmacokinetic study in beagle dog; format: in vivo; conditions: male, beagle, plasma; for concentration at 12 h / concentration at 24 h / concentration at 36 h / concentration at 48 h / concentration at 0.25 h / concentration at 0.5 h / concentration at 1 h / concentration at 2 h / concentration at 4 h / concentration at 8 h / concentration at 10 h: male beagle dog; for half-life: read-out: T1/2, apparent terminal half-life (converted)
Protocol: Pharmacokinetic studies were conducted in male beagle dogs and male cynomolgus monkeys at SRI International, Menlo Park, CA. General procedures for animal care and housing were in accordance with the National Research Council (NRC) Guide for the Care and Use of Laboratory Animals (1996) and the Animal Welfare Standards incorporated in 9 CFR Part 3, 1991 and complied with guidelines set forth by the ARVO Animal Statement for the Use of Animals in Ophthalmic and Vision Research. During the course of the PK experiments, cynomolgus monkeys were individually housed in stainless steel primary enclosures in an AAALAC-accredited facility. Animals were fed a commercial monkey chow, and supplemental food was provided (fresh fruits, vegetables, seeds, and nuts). Reverse osmosis-purified drinking water was available at all times. Cynomolgus monkeys were maintained on a 12:12 hour light:dark cycle at the 64–84°F temperature and 30–70% humidity. Monkeys had access to enrichment opportunities (grooming devices, foraging devices, activity panels and mirrors) and were provided auditory stimuli and human interaction enrichment throughout the study. Blood samples were collected by venipuncture of a peripheral vein. Animals were acclimated to the squeeze back mechanism in their home cage by repeated, short periods of restraint during general husbandry procedures for at least 2 weeks prior to dosing. Animal were not removed from their cages for collection, and no anesthesia/analgesic agents were used for blood collection. […] For PK experiments, beagle dogs were individually housed in enclosed run (≥ 4 ft x 6 ft). Dogs were exposed to their daily ration of food, Harlan Teklad 2025C Certified Global 25% Protein Dog Diet. Water was provided from the public water supply (municipal tap water) ad libitum. Dogs were maintained on a 12:12 hour light:dark cycle at the 72–73°F temperature and 40–71% humidity. Every effort was made to minimize, if not eliminate, pain and suffering in all animals in this study. No restraining devices were used in blood collecting procedures. Dogs were gentle hand-held to restrain by trained technicians with the dogs foreleg extended for sample collection of blood from cephalic vein. Animals were awake during blood sample collection with no anesthesia/analgesic agents used, and positive reinforcement by the technician was provided following collection. […] All dogs were released back to the colony after the study was completed. Male beagle dogs and male cynomolgus monkey received a single i.v. dose of a test compound at 0.5 mg kg^−1 (dog) and 1 mg kg^−1 (monkey) or a single p.o. dose of a test compound of at 2 mg kg^−1 (dog) and 5 mg kg^−1 (monkey). The number of animals that was used in PK experiments is 3 per study group. Intravenous administration vehicle was 3% DMA/45% PEG300/12% ethanol/40% sterile water; p.o. vehicle was 2% Tween 80 in 0.9% saline. […] Blood samples were processed to plasma. Following protein extraction with acetonitrile, compound concentrations in plasma were measured by LC-MS/MS. The plasma drug level data were analyzed using WinNonlin software package; Model 201 (for i.v. bolus administration);was used for the analysis of i.v. data, and Model 200 (for extravascular administration) was used for the analysis of the p.o. data. Aliquots of pre-dose plasma samples, as well as aliquots of plasma PK samples, were used for the analysis of the plasmabiomarker, RBP4.

[2] = Metabolic stability in cynomolgus monkey liver microsomes; format: in vitro ADME; conditions: male, pH 7.4, Cyno liver microsomes, 1 mg/mL, read-out: Microsomal Stability (% Remaining at 30 min)
Protocol: All measurements were done in duplicate. Pooled mixed gender human donor microsomes, male beagle dog microsomes and male cynomolgus monkey were obtained from BioIVT (Baltimore, MD). […] A mixture containing 50 mM potassium phosphate buffer pH 7.4 and 1 mg/mL liver microsomes was pre-warmed for 10 min at 37°C in a shaking water bath, followed by the addition of test compound. Final DMSO concentration in the reaction mix was 0.1%. […] The final volume of the reaction mixture was 800 μL, containing 1 mg/mL liver microsomes, and 1 μM test compound. Aliquots (100 μL) of reaction mixtures were removed from the incubation plate at pre-defined timepoints and mixed with 150 μL of ice-cold acetonitrile, incubated on ice for 15 min, and samples were centrifuged (3,600 rpm, 10 min, 4°C) to precipitate protein. The supernatants were diluted 1:1 (v/v) with water containing the internal standard and subjected to the LC/MS analysis.

[3] = dog, iv, 0.5 mg/kg, iv 0.5 mg/kg, read-out: Plasma level, Mean
[4] = dog, iv, 0.5 mg/kg, iv 0.5 mg/kg, read-out: Plasma level, Individual animals
[5] = dog, po, 2 mg/kg, po 2 mg/kg, read-out: Plasma level, Individual animals
[6] = dog, po, 2 mg/kg, po 2 mg/kg, read-out: Plasma level, Mean
[7] = iv, Dog, 0.5 mg kg^−1 i.v., mean ± SD, n=3
[8] = po, Dog, 2.0 mg kg^−1 p.o., mean ± SD, n=3

concentration at 12 h [1, 3]: 0.107 µg/mL
concentration at 24 h [1, 4]: 0.169 µg/mL
concentration at 24 h [1, 3]: 0.175 µg/mL
concentration at 36 h [1, 4]: 0.0333 µg/mL
concentration at 36 h [1, 3]: 0.041 µg/mL
concentration at 48 h [1, 4]: 0.0928 µg/mL
concentration at 48 h [1, 3]: 0.0959 µg/mL
bioavailability ([1]; dog, oral, 2 mg kg^−1, Dog, 2.0 mg kg^−1 p.o. vs 0.5 mg kg^−1 i.v., read-out: %F, bioavailability): ~84%
concentration at 0.25 h [1, 5]: 7.1 µg/mL
concentration at 0.25 h [1, 6]: 7.09 µg/mL
concentration at 0.5 h [1, 5]: 6.34 µg/mL
concentration at 0.5 h [1, 6]: 6.72 µg/mL
concentration at 1 h [1, 5]: 6.63 µg/mL
concentration at 1 h [1, 6]: 5.94 µg/mL
concentration at 2 h [1, 5]: 3.6 µg/mL
concentration at 2 h [1, 6]: 4.12 µg/mL
concentration at 4 h [1, 5]: 1.79 µg/mL
concentration at 4 h [1, 6]: 2.14 µg/mL
concentration at 8 h [1, 5]: 0.855 µg/mL
concentration at 8 h [1, 6]: 0.904 µg/mL
concentration at 10 h [1, 5]: 0.407 µg/mL
concentration at 10 h [1, 6]: 0.559 µg/mL
concentration at 12 h [1, 5]: 0.453 µg/mL
concentration at 12 h [1, 6]: 0.532 µg/mL
concentration at 24 h [1, 5]: 0.33 µg/mL
concentration at 24 h [1, 6]: 0.383 µg/mL
concentration at 36 h [1, 5]: 0.0824 µg/mL
concentration at 36 h [1, 6]: 0.0942 µg/mL
concentration at 48 h [1, 6]: 0.126 µg/mL
AUC(0-inf) [1, 7]: 10.7 ± 0.5 µg·h/mL
AUC(0-t) [1, 7]: 10.3 ± 0.5 µg·h/mL
clearance ([1]; iv, Dog, 0.5 mg kg^−1 i.v., mean ± SD, n=3, read-out: CL, total body clearance (converted)): 0.047 L/h/kg
Cmax ([1]; iv, Dog, 0.5 mg kg^−1 i.v., mean ± SD, n=3, read-out: Cmax, maximum observed concentration at first time point): 2.7 ± 0.1 µg/mL
half-life [1, 7]: 2.6 ± 0.2 h
Vd ([1]; iv, Dog, 0.5 mg kg^−1 i.v., mean ± SD, n=3, read-out: Vss, volume of distribution at steady state): 0.622 ± 0.0034 L/kg
AUC(0-inf) [1, 8]: 35.9 ± 4.4 µg·h/mL
AUC(0-t) [1, 8]: 35.4 ± 0.4 µg·h/mL
Tmax [1, 8]: 0.33 ± 0.14 h
Cmax ([1]; po, Dog, 2.0 mg kg^−1 p.o., mean ± SD, n=3, read-out: Cmax): 7.5 ± 0.2 µg/mL
half-life [1, 8]: 2.9 ± 0.4 h
remaining at 0.5 h, 1 μM [2]: 95%
SMILES: Cc1cc(C(=O)O)nc(N2C[C@H]3C[C@@H](c4ccccc4C(F)(F)F)C[C@H]3C2)n1 [BPN-14136]
